Measured values published in patent US20230012368A1 (Hoffmann-La Roche Inc., priority 2018, published 2023).
Where two headings read alike, the source gives them in different places.

Tested on: Acinetobacter baumannii ATCC 17978
Experiment: Antimicrobial susceptibility testing: 90% growth inhibitory concentration (IC90) determination
Format: cell-based
Conditions: 90% growth inhibitory concentration, Acinetobacter baumannii ATCC17978, Iso-Sensitest broth, OD 600 nm over 16h, read-out: ATCC17978 IC90
Summary of the method: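 Compounds serially twofold diluted (e.g. 50 to 0.097 μM final) in Iso-Sensitest broth, inoculated at ~5×10^(5) CFU/ml, incubated at 35±2° C. OD600 read every 20 minutes over 16h. IC90 taken as concentration inhibiting 90% of growth during logarithmic phase.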

[1] = Acinetobacter baumannii, ATCC17978, 16 h

Row | Structure (SMILES) | IC90 [1] [nM] | IC90 [nM]
1 | Cc1cc(Nc2nccn3c(-c4ccc(Cl)c(F)c4F)cnc23)ccc1C(=O)NCCC1CCNCC1 [Example 193, 4-[[3-(4-chloro-2,3-difluorophenyl)imidazo[1,2-a]pyrazin-8-yl]amino]-2-methyl-N-(2-piperidin-4-ylethyl)benzamide;hydrochlo-ride] | 350 | 
2 | COc1ccc(-c2cnc3c(Nc4ccc(C(=O)NCCCCN)c(C)c4)nccn23)cc1 [Example 194, N-(4-aminobutyl)-4-[[3-(4-methoxyphenyl)imidazo[1,2-a]pyrazin-8-yl]amino]-2-methylbenzamide;hydrochlo-ride] | 360 | 
3 | COc1ccc(-c2cnc3c(Nc4ccc(C(=O)NCCC5CCN(C)CC5)c(C)c4)nccn23)cc1 [Example 195, 4-[[3-(4-methoxyphenyl)imidazo[1,2-a]pyrazin-8-yl]amino]-2-methyl-N-[2-(1-methylpiperidin-4-yl)ethyl]benzamide;hydrochlo-ride] |  | 360
4 | Cc1cc(Nc2nccn3c(-c4ccc(OC(F)F)cc4)cnc23)ccc1C(=O)NCCC1CCNCC1 [Example 196, 4-[[3-[4-(difluoromethoxy)phenyl]im-idazo[1,2-a]pyrazin-8-yl]amino]-2-methyl-N-(2-piperidin-4-ylethyl)benzamide;hydrochlo-ride] | 380 | 
5 | Cc1cc(Nc2nccn3c(-c4ccc(OC(F)F)cc4)cnc23)ccc1C(=O)NCCCCN1CCOCC1 [Example 197, 4-[[3-[4-(difluoromethoxy)phenyl]im-idazo[1,2-a]pyrazin-8-yl]amino]-2-methyl-N-(4-morpholin-4-ylbutyl)benzamide] | 400 | 
6 | Cc1cc(Nc2nccn3c(-c4ccc(OC(F)F)cc4)cnc23)ccc1C(=O)NCC1CCN(C)CC1 [Example 198, 4-[[3-[4-(difluoromethoxy)phenyl]im-idazo[1,2-a]pyrazin-8-yl]amino]-2-methyl-N-[(1-methylpiperidin-4-yl)methyl]benzamide] | 720 | 
7 | COc1ccc(-c2cnc3c(Nc4ccc(C(=O)NCCN5CCNCC5)c(C)c4)nccn23)cc1F [Example 199, 4-[[3-(3-fluoro-4-methoxyphenyl)imidazo[1,2-a]pyrazin-8-yl]amino]-2-methyl-N-(2-piperazin-1-ylethyl)benzamide;hydrochlo-ride] | 420 | 
8 | Cc1cc(Nc2nccn3c(-c4ccc(OC(F)F)cc4)cnc23)ccc1C(=O)N(C)CCCCN [Example 200, N-(4-aminobutyl)-4-[[3-[4-(difluoromethoxy)phenyl]im-idazo[1,2-a]pyrazin-8-yl]amino]-N,2-dimethylbenzamide;hydrochlo-ride] | 440 | 
9 | Cc1cc(Nc2nccn3c(-c4ccc(Cl)c(F)c4F)cnc23)ccc1C(=O)NCCCCN [Example 202, N-(4-aminobutyl)-4-[[3-(4-chloro-2,3 difluorophenyl)imidazo[1,2-a]pyrazin-8-yl]amino]-2-methylbenzamide; hydrochlo-ride] | 460 | 
10 | CN(CCN1CCNCC1)C(=O)c1ccc(Nc2nccn3c(-c4ccc(OC(F)F)cc4)cnc23)cc1Cl [Example 203, 2-chloro-4-[[3-[4-(difluoromethoxy)phenyl]im-idazo[1,2-a]pyrazin-8-yl]amino]-N-methyl-N-(2-piperazin-1-ylethyl)benzamide; hydrochlo-ride] | 460 | 
11 | CC(=O)N1CCC(CCN(C)C(=O)c2ccc(Nc3nccn4c(-c5ccc(OC(F)F)cc5)cnc34)cc2C)CC1 [Example 204, N-[2-(1-acetylpiperidin-4-yl)ethyl]-4-[[3-[4-(difluoromethoxy)phenyl]im-idazo[1,2-a]pyrazin-8-yl]amino]-N,2-dimethylbenzamide] | 530 | 
12 | COc1ccc(-c2cnc3c(Nc4ccc(C(=O)N(C)CC5CCNCC5)c(Cl)c4)nccn23)cc1F [Example 205, 2-chloro-4-[[3-(3-fluoro-4-methoxyphenyl)imidazo[1,2-a]pyrazin-8-yl]amino]-N-methyl-N-(piperidin-4-ylmethyl)benzamide;hydrochlo-ride] | 530 | 
13 | COc1ccc(-c2cnc3c(Nc4ccc(C(=O)NCC5OCC(N)CO5)c(C)c4)nccn23)cc1 (stereo not drawn) [Example 206, N-[(5-amino-1,3-dioxan-2-yl)methyl]-4-[[3-(4-methoxyphenyl)imidazo[1,2-a]pyrazin-8-yl]amino]-2-methylbenzamide] | 540 | 
14 | COc1ccc(-c2cnc3c(Nc4ccc(C(=O)N(C)CCCC(=O)N5CCNCC5)c(C)c4)nccn23)cc1F [Example 207, 4-[[3-(3-fluoro-4-methoxyphenyl)imidazo[1,2-a]pyrazin-8-yl]amino]-N,2-dimethyl-N-(4-oxo-4-piperazin-1-ylbutyl)benzamide;hydrochlo-ride] | 560 | 
15 | Cc1cc(Nc2nccn3c(-c4ccc(OC(F)F)cc4)cnc23)ccc1C(=O)N(C)CCCCN1CCOCC1 [Example 208, 4-[[3-[4-(difluoromethoxy)phenyl]im-idazo[1,2-a]pyrazin-8-yl]amino]-N,2-dimethyl-N-(4-morpholin-4-ylbutyl)benzamide] | 580 | 
16 | Cc1cc(Nc2nccn3c(-c4ccc(OC(F)F)cc4)cnc23)ccc1C(=O)NCCCN1CCOCC1 [Example 209, 4-[[3-[4-(difluoromethoxy)phenyl]im-idazo[1,2-a]pyrazin-8-yl]amino]-2-methyl-N-(3-morpholin-4-ylpropyl)benzamide] | 590 | 
17 | COc1ccc(-c2cnc3c(Nc4ccc(C(=O)N(C)CC5CCNCC5)c(C)c4)nccn23)cc1F [Example 210, 4-[[3-(3-fluoro-4-methoxyphenyl)imidazo[1,2-a]pyrazin-8-yl]amino]-N,2-dimethyl-N-(piperidin-4-ylmethyl)benzamide;hydrochlo-ride] | 630 | 
18 | COc1ccc(-c2cnc3c(Nc4ccc(C(=O)NCC5CCNCC5)c(C)c4)nccn23)cc1 [Example 211, 4-[[3-(4-methoxyphenyl)imidazo[1,2-a]pyrazin-8-yl]amino]-2-methyl-N-(piperidin-4-ylmethyl)benzamide;hydrochlo-ride] | 640 | 
19 | CCc1cc(Nc2nccn3c(-c4ccc(OC(F)F)cc4)cnc23)ccc1C(=O)NCCN1CCNCC1 [Example 212, 4-[[3-[4-(difluoromethoxy)phenyl]im-idazo[1,2-a]pyrazin-8-yl]amino]-2-ethyl-N-(2-piperazin-1-ylethyl)benzamide;hydrochlo-ride] | 640 | 
20 | COc1ccc(-c2cnc3c(Nc4ccc(C(=O)NCC5CCNCC5)c(C)c4)nccn23)cc1F [Example 213, 4-[[3-(3-fluoro-4-methoxyphenyl)imidazo[1,2-a]pyrazin-8-yl]amino]-2-methyl-N-(piperidin-4-ylmethyl)benzamide;hydrochlo-ride] | 660 | 
21 | Cc1cc(Nc2nccn3c(-c4ccc(Cl)c(F)c4F)cnc23)ccc1C(=O)NCCCN [Example 214, N-(3-aminopropyl)-4-[[3-(4-chloro-2,3-difluorophenyl)imidazo[1,2-a]pyrazin-8-yl]amino]-2-methylbenzamide;hydrochlo-ride] | 690 | 
22 | CCN(CC)C(=O)c1ccc(Nc2nccn3c(-c4ccc(OC)c(Cl)c4)cnc23)cc1 [Example 215, 4-[[3-(3-chloro-4-methoxyphenyl)imidazo[1,2-a]pyrazin-8-yl]amino]-N,N-diethylbenzamide] | 680 | 
23 | COc1ccc(-c2cnc3c(Nc4ccc(C(=O)NCCN5CCNC(=O)C5)c(C)c4)nccn23)cc1F [Example 216, 4-[[3-(3-fluoro-4-methoxyphenyl)imidazo[1,2-a]pyrazin-8-yl]amino]-2-methyl-N-[2-(3-oxopiperazin-1-yl)ethyl]benzamide] | 770 | 
24 | C=Cc1cc(Nc2nccn3c(-c4ccc(OC(F)F)cc4)cnc23)ccc1C(=O)N(C)CCN1CCNCC1 [Example 217, 4-[[3-[4-(difluoromethoxy)phenyl]im-idazo[1,2-a]pyrazin-8-yl]amino]-2-ethenyl-N-methyl-N-(2-piperazin-1-ylethyl)benzamide;hydrochlo-ride] | 840 | 
25 | Cc1cc(Nc2nccn3c(-c4ccc(OC(F)F)cc4)cnc23)ccc1C(=O)N(C)CCCN1CCNCC1 [Example 219, 4-[[3-[4-(difluoromethoxy)phenyl]im-idazo[1,2-a]pyrazin-8-yl]amino]-N,2-dimethyl-N-(3-piperazin-1-ylpropyl)benzamide;hydrochlo-ride] | 1000 | 
26 | CCN(CC)C(=O)c1ccc(Nc2nccn3c(-c4ccc(OC)cc4)cnc23)cc1C [Example 220, N,N-diethyl-4-[[3-(4-methoxyphenyl)imidazo[1,2-a]pyrazin-8-yl]amino]-2-methylbenzamide] | 1200 | 
27 | Cc1cc(Nc2nccn3c(-c4ccc(OC(F)F)cc4)cnc23)ccc1C(=O)NCCN1CCNC(=O)C1 [Example 221, 4-[[3-[4-(difluoromethoxy)phenyl]im-idazo[1,2-a]pyrazin-8-yl]amino]-2-methyl-N-[2-(3-oxopiperazin-1-yl)ethyl]benzamide] | 1100 | 
28 | Cc1cc(Nc2nccn3c(-c4ccc(OC(F)F)cc4)cnc23)ccc1C(=O)NC(C)(C)CN1CCOCC1 [Example 222, 4-[[3-[4-(difluoromethoxy)phenyl]im-idazo[1,2-a]pyrazin-8-yl]amino]-2-methyl-N-(2-methyl-1-morpholin-4-ylpropan-2-yl)benzamide] | 1100 | 
29 | COc1ccc(-c2cnc3c(Nc4ccc(C(=O)NCCCCCNC(=O)OC(C)(C)C)c(C)c4)nccn23)cc1 [Example 223, tert-butyl N-[5-[[4-[[3-(4-methoxyphenyl)imidazo[1,2-a]pyrazin-8-yl]amino]-2-methylbenzoyl]amino]pentyl] carbamate] | 1100 | 
30 | CCc1cc(Nc2nccn3c(-c4ccc(OC(F)F)cc4)cnc23)ccc1C(=O)N(C)CCN1CCNCC1 [Example 224, 4-[[3-[4-(difluoromethoxy)phenyl]im-idazo[1,2-a]pyrazin-8-yl]amino]-2-ethyl-N-methyl-N-(2-piperazin-1-ylethyl)benzamide;hydrochlo-ride] | 1100 | 
